Results from US20210381060A1, “CANCER SPECIFIC IMMUNOTHERAPEUTIC TARGETS GENERATED BY CHEMOTHERAPEUTIC DRUG TREATMENT” (Health Research, Inc., priority 2018, published 2021).

Legend:
MCF10A p53+/+ cell line = test: RT-PCR of cell cycle progression gene mRNA after 5-FU exposure; assay type: cell-based, human; conditions: 300 μM 5-FU for 24 h
Procedure: (§1) FIG. 2. […] P53 mutant MDA-MB-231 cells, p53wt MCF10A cells, and MCF10A cells with biallelic frameshift mutation in the p53 gene were treated or untreated with 300uM of 5-FU for 24 h. NMD was inhibited or not with 10 mM caffeine for 4 h before cytoplasmic RNA isolation. “*” symbols indicate RT-PCR amplicons with retained introns.
(§2) The following breast cell lines were used: MDA-MB-231 p53−/−, MCF10A p53+/+ cell line and the derivative of MCF10A p53−/−, all treated or untreated with 300 μM of 5-FU for 24 h. In addition, the NMD pathway was inhibited or not inhibited with caffeine for 4 h before cytoplasmic RNA isolation in order to detect the mRNA species that are degraded due to stop codons contained within retained introns.

4T1 tumor cells = test: Tumor challenge with 5FU-treated or untreated 4T1 cells, tumor growth; assay type: in vivo, BALB/cJ mice; conditions: FIG. 3B top, 5FU-treated mice (i.p. 100 mg/kg day -7, 50 mg/kg day 0, 20 mg/kg every three days)
Procedure: (§3) FIG. 3. BALB/cJ mice were challenged (on the left flank) at day 0 with 150,000 5FU- treated or untreated 4T1 tumor cells. Seven days after the first tumor challenge, they were challenged (on the right flank) with 95,000 5FU- treated or untreated Meth A tumor cells and growth of both tumors was measured. […] Each line represents tumor growth in a single mouse. […] B. (Top panel) 4T1 (un-treated or in vitro-5FU treated) growth curves in 5FU-treated mice (5FU i.p. 100 mg/kg at day -7, 50 mg/kg at day 0 and 20 mg/kg every three days after the first tumor challenge). […] (Bottom panel) The same mice as the top panel were challenged with un-treated or 5FU-treated Meth A cells, one week after challenge with 4T1 cells.
(§4) As known in the art, 4T1 cells are a breast cancer cell line derived from the mammary gland tissue of mouse. Meth A cancer cells are methyl-cholantrene-induced mouse sarcoma cells. […] This Example analyzes whether treatment with 5-FU generates new antigenic entities (such as CiPAS), and if treatment of both cell types produces the same antigens in both cells. If this process occurs, the antigens should be processed and presented identically in both cells of the BALB/c haplotype.
(§5) First, we tested if treatment of cells in vitro with 5-FU, in and of itself, makes the cancer cells grow differently because of cell death, or another phenomenon.

MCF10A p53−/− = test: RT-PCR analysis of intron retention after 5-FU exposure; assay type: cell-based, human; conditions: 300 μM 5-FU for 24 h
Procedure: as §1, §2

MDA-MB-231 p53−/− = test: as above; assay type: cell-based, human; conditions: 300 μM 5-FU for 24 h
Procedure: as §1, §2

MCF10A p53−/− KO cells = test: RNA-Seq detection of CiPAS (retained-intron polypeptides); assay type: cell-based, human; conditions: cells treated with 5-FU and caffeine, not detected with caffeine alone
Text: (§6) The following Table 1 provides predicted-CiPAS and includes polypeptide sequences encoded by introns detected with high confidence in RNA-Seq generated from MDA-MB-231 and MCF10A p53−/− KO cells treated with 5-FU and caffeine and not detected in cells treated with caffeine alone. 38 and 76 CiPAS were detected in MDA-MB-231 and MCF10A p53−/− KO cells, respectively, including 18 shared CiPAS. Certain representative and non-limiting chemo-neoepitopes encoded by the CiPaS sequences are shown in bold, with overlapping amino acids in italics.

MDA-MB-231 = test: as above; assay type: cell-based, human
Text: as §6

Meth A tumor cells = test: Tumor challenge with 5FU-treated or untreated Meth A cells, tumor growth; assay type: in vivo, BALB/cJ mice; conditions: for growth of 5-FU treated vs un-treated Meth A cells in vivo (AUC): FIG. 3A, in vitro 5-FU treatment alone, P=0.07; for growth of 5-FU-treated vs un-treated Meth A cells (AUC) in mice previously immunized with 5-FU-treated 4T1 cells: challenge one week after 4T1, P=0.003
Procedure: as §3, §4, §5

Structure (SMILES): O=c1[nH]cc(F)c(=O)[nH]1 [5-FU, 5-fluorouracil]
- MCM10 mRNA in response to 5-FU (MCF10A p53+/+ cell line; data not shown): repressed
- transcription of the mRNA of the CCNE2 cell cycle progression gene in response to 5-FU (MCF10A p53+/+ cell line; only in MCF10A cells with p53+/+): repressed
- growth of 5-FU treated vs un-treated 4T1 cells in vivo (AUC) (4T1 tumor cells): grow essentially identically
- growth of 5-FU treated vs un-treated 4T1 cells in vivo (AUC) (4T1 tumor cells; listed as 5FU): grow the same
- extent of retention of 6th intron of the CCNE2 gene (MCF10A p53−/−): the whole intron is retained
- intron retention in MCM10 and CCNE2 genes in response to 5-FU (MCF10A p53−/−; only in cells with mutant p53): intron retention
- extent of retention of 6th intron of the CCNE2 gene (MDA-MB-231 p53−/−): only part of the 6th intron of the CCNE2 gene is retained
- intron retention in MCM10 and CCNE2 genes in response to 5-FU (MDA-MB-231 p53−/−; only in cells with mutant p53): intron retention
- number of CiPAS detected (MCF10A p53−/− KO cells): 76 CiPAS
- number of CiPAS detected (MDA-MB-231; cells treated with 5-FU and caffeine, not detected with caffeine alone): 38 CiPAS
- number of shared CiPAS (MDA-MB-231; shared between MDA-MB-231 and MCF10A p53−/− KO cells, 5-FU and caffeine): 18 CiPAS
- number of genes with overexpressed introns in 5-FU treated 4T1 samples (4T1 cells): 804 genes
- number of introns overexpressed in 5-FU treated 4T1 samples (4T1 cells): 991 introns
- growth of 5-FU treated vs un-treated Meth A cells in vivo (AUC) (Meth A tumor cells): grow identically
- growth of 5-FU treated vs un-treated Meth A cells in vivo (AUC) (Meth A tumor cells; listed as 5FU): grow similarly
- slower growth of 5-FU-treated Meth A cells in mice previously challenged with 5-FU-untreated 4T1 cells (Meth A tumor cells; FIG. 3B bottom): not seen
- growth of 5-FU-treated vs un-treated Meth A cells (AUC) in mice previously immunized with 5-FU-treated 4T1 cells (Meth A tumor cells; FIG. 3B bottom): grow more slowly
- growth of 5-FU-treated vs un-treated Meth A cells (AUC) in mice previously immunized with 5-FU-treated 4T1 cells (Meth A tumor cells; FIG. 3B bottom, listed as 5FU): significantly lower
